The source of these data is ChEMBL document CHEMBL1150897, “Antioxidant flavonoid glycosides from Daphniphyllum calycinum” (J Nat Prod, 1998).

Values after ≈ are worked out from the molar mass of the structure shown.

This assay concerns Radical scavenging activity. The assay is described as follows: Antioxidant activity assessed as DPPH free radical scavenging activity. The assay is classed as functional. On the technique in general: The DPPH test is a chemical assay of radical scavenging.

By IC50 is commonly meant the concentration at which inhibition is half-maximal. As for `C[C@@H]1O[C@@H](OC[C@H]2O[C@@H](Oc3c(-c4ccc(O)cc4)oc4cc(O)c(O)c(O)c4c3=O)[C@H](O)[C@@H](O)[C@@H]2O)[C@H](O)[C@H](O)[C@H]1O`, the IC50 worked out at 43.2 mg/L (≈ 70.8 µM).

Consider `C[C@H]1O[C@H](O[C@H]2[C@H](Oc3c(-c4ccc(O)cc4)oc4cc(O)cc(O)c4c3=O)O[C@H](CO)[C@@H](O)[C@@H]2O)[C@@H](O)[C@@H](O)[C@@H]1O`, for which the IC50 is 79.6 mg/L (≈ 134 µM).

As to `O=C1O[C@H]([C@@H](O)CO)C(O)=C1O` [ASCORBIC ACID], the IC50 was 22 mg/L (≈ 125 µM).

With `COc1ccc(O)c(C(C)(C)C)c1.COc1ccc(O)cc1C(C)(C)C` [BUTYLATED HYDROXYANISOLE], the IC50 was determined as 21 mg/L.

As for `O=C(O)/C=C/c1ccc(O)c(O)c1` [CAFFEIC ACID], the IC50 is 12 mg/L (≈ 66.6 µM).

Regarding `O=C(O)c1cc(O)c(O)c(O)c1` [GALLIC ACID], the IC50 was 5 mg/L (≈ 29.4 µM).

With `CC(Cc1ccc(O)c(O)c1)C(C)Cc1ccc(O)c(O)c1` (configuration not stated) [NORDIHYDROGUAIARETIC ACID], the IC50 stood at 12 mg/L (≈ 39.7 µM).
